Patent publication US11446352B2, “Compositions and methods for inhibiting tumor-induced immune suppression” (priority 2017, dated 2022)

Assays:
AB1-HA tumor = settings: CTX treatment at Day 9; cited from earlier work
[1] = test system: Hsp90 chaperoning machine; assay: progesterone receptor (PR) refolding assay using reticulocyte lysate (RRL); format: biochemical; settings: protein complex analysis; 10 μM EnnA, 1 μM 17-AAG
Excerpt: (§1) The first bar indicates 100% folding activity of RRL without inhibitor. PR22 indicates the antibody without PR but with RRL and EnnA. PR represents the antibody (PR22) with PR but without RRL. All other samples have PR22, PR, and RRL without (first bar) or with increased concentration of EnnA. FIGS. 1C-1E are line graphs of cell survival versus EnnA concentration (μM) in breast cancer cell lines Hs578T (FIG. 1C), […] (FIG. 1D) and MDA-MB231 (FIG. 1E) upon treatment with EnnA for 48 and 72 h. […] PR alone (PR), antibody (PR22)+RRL, PR+RRL without inhibitor (RRL), PR+RRL with 1 μM 17-AAG (17AAG) PR+RRL with 10 μM BEAU or EnnA. FIGS. 1G-1I are autoradiographs of Western blots of cytosols from various cell lines treated with 17-AAG (1 μM) or EnnA (3 μM) with antibodies against the specified proteins. FIG. 1J is an autoradiograph showing EnnA causes autophagy in Hs578T and MDA-MB453 cell lines. FIGS. 1K-1N are electron microscopy micrographs showing autophagosomes and reduced mitochondria content in Hs578T cells treated with DMSO or EnnA. FIGS. 1O-1P are fluorescence micrographs showing EnnA causing reduced mitochondria content in Hs578T cells. FIGS. 1Q-1BB are fluorescence micrographs showing mitophagy in Hsp578T cells treated with EnnA as indicated by colocalization of the mitochondria marker Cox4 and the autophagy marker LC3BII.
A cell-free high-throughput screen (HTS) platform based on the progesterone receptor (PR) using reticulocyte lysate (RRL) as a source of molecular chaperones was used to screen 175 natural products (Patwardhan C A, et al., J Biomol Screen (2014)). This assay captures the physiological steps of PR refolding by the Hsp90 chaperoning machine and measures the recovery of its hormone-binding activities after mild heat treatment. It has the ability to identify inhibitors as well as activators of the core components of the Hsp90 chaperoning machine (i.e., Hsp90, Hsp70, Hsp40, Hsp90/Hsp70 organizing protein (HOP), and p23), including compounds that target chaperone complexes as well as individual proteins.

[2] = test system: Hs587T and MDA-MB-453 cell lines; assay: autophagy, mitochondria content and mitophagy in treated cancer cells; format: cell-based, human; settings: Hs587T and MDA-MB-453 cell lines
Excerpt: as §1

KB-3-1 cervix carcinoma = settings: cited from earlier work
[3] = preclinical studies; cited from earlier work

SMILES: O=P1(N(CCCl)CCCl)NCCCO1 (centres unmarked) [CTX, Cyclophosphamide]
- cure rate (AB1-HA tumor): 75%

SMILES: C=CCNC1=C2C[C@@H](C)C[C@H](OC)[C@H](O)[C@@H](C)/C=C(\C)[C@H](OC(N)=O)[C@@H](OC)/C=C\C=C(/C)C(=O)NC(=CC1=O)C2=O [17-AAG, reference compound]
- accumulation of Hsp70-rich PR complexes [1]: observed
- mode of cell death (apoptosis / autophagy) [2]: induces apoptosis

SMILES: CC(C)[C@H]1C(=O)O[C@H](C(C)C)C(=O)N(C)[C@@H](C(C)C)C(=O)O[C@H](C(C)C)C(=O)N(C)[C@@H](C(C)C)C(=O)O[C@H](C(C)C)C(=O)N1C [Enniatin B]
- reduction of tumor growth in combination with sorafenib (KB-3-1 cervix carcinoma): synergizes with sorafenib
- anti-angiogenic activity [3]: anti-angiogenic activity
